Experimental data as given in ChEMBL document CHEMBL1157784, “Antitumor activity and COMPARE analysis of bis-indole derivatives” (Bioorg Med Chem, 2010).

Assays:
Assay type in all cases: functional
[1] = Growth inhibition of human leukemia cell by NCI-CLS assay
[2] = Growth inhibition of human ovarian cancer cell by NCI-CLS assay; settings: Cancer cell lines; for CC50: read-out: LC50 (the source's name)
[3] = Growth inhibition of human melanoma cell by NCI-CLS assay; settings: for CC50: read-out: LC50 (the source's name)
[4] = Growth inhibition of human prostate cancer cell by NCI-CLS assay; settings: Cancer cell lines; for CC50: read-out: LC50 (the source's name)
[5] = Growth inhibition of human breast cancer cell by NCI-CLS assay; settings: Cancer cell lines; for CC50: read-out: LC50 (the source's name)
NSCLC = test: Growth inhibition of human NSCLC cell by NCI-CLS assay
[6] = Growth inhibition of human renal cancer cell by NCI-CLS assay; settings: Cancer cell lines; for CC50: read-out: LC50 (the source's name)
[7] = Growth inhibition of human colon cancer cell by NCI-CLS assay; settings: Cancer cell lines
[8] = Growth inhibition of human CNS cancer cell by NCI-CLS assay; settings: Cancer cell lines; for CC50: read-out: LC50 (the source's name)

Compound	GI50 [1] [µM]	TGI [1] [µM]	GI50 [2] [µM]	TGI [2] [µM]	GI50 [3] [µM]	TGI [3] [µM]	CC50 [3] [µM]	GI50 [4] [µM]	TGI [4] [µM]	GI50 [5] [µM]	TGI [5] [µM]	GI50 (NSCLC) [µM]	LC50 (NSCLC) [µM]	TGI (NSCLC) [µM]	GI50 [6] [µM]	TGI [6] [µM]	CC50 [6] [µM]	GI50 [7] [µM]	TGI [7] [µM]	GI50 [8] [µM]	other results
O=C1Nc2cccc(I)c2/C1=C\c1cccc(/C=C2/C(=O)Nc3cccc(I)c32)n1	0.9	30.9	1.1	5.6	1	3.2	13.5	0.6	2.2	0.8	4.4	1.3	21.9	5	0.9	2.6	8.3	0.5	1.9	1.2	CC50 [2]: 22.4 µM; CC50 [4]: 24 µM; CC50 [5]: 21.9 µM; LC50 [7]: 7.6 µM; TGI [8]: 4 µM; CC50 [8]: 13.8 µM
COc1ccc2c(c1)/C(=C\c1ccccc1/C=C1/C(=O)Nc3ccc(OC)cc31)C(=O)N2	5.4	–	14.1	–	13.8	91.2	–	14.4	58.9	7.8	–	14.1	–	87.1	21.4	79.4	–	7.8	87.1	14.1	TGI [8]: 72.4 µM
CC(C)(C)c1cc(/C=C2/C(=O)Nc3cccc(Cl)c32)c(O)c(/C=C2/C(=O)Nc3cccc(Cl)c32)c1	2.8	46.8	2.2	15.8	2.9	9.3	36.3	2.2	10.2	2.4	11.5	3.5	64.6	15.1	3.6	15.8	56.2	2.2	6.2	2.3	CC50 [2]: 44.7 µM; CC50 [4]: 72.4 µM; CC50 [5]: 67.6 µM; LC50 [7]: 21.9 µM; TGI [8]: 11 µM; CC50 [8]: 58.9 µM
COc1ccc2c(c1)/C(=C\c1cccc(/C=C3/C(=O)Nc4ccc(OC)cc43)c1)C(=O)N2	1	11.5	2.1	6.3	1.2	2.9	30.2	1.7	4.1	1.2	5	3	85.1	11	2.5	6.2	79.4	1.7	7.4	1.4	CC50 [2]: 95.5 µM; CC50 [4]: 25.7 µM; LC50 [7]: 83.2 µM; TGI [8]: 4.3 µM; CC50 [8]: 29.5 µM
O=C1Nc2cccc(Cl)c2/C1=C\c1cccc(/C=C2/C(=O)Nc3cccc(Cl)c32)c1	1.3	9.8	2.7	14.4	3.2	16.6	34.7	1.5	16.2	2.4	13.2	4.2	42.7	20.4	2.3	9.3	36.3	2.6	14.8	1.7	LC50 [1]: 27.5 µM; CC50 [2]: 41.7 µM; CC50 [4]: 50.1 µM; CC50 [5]: 42.7 µM; LC50 [7]: 33.1 µM; TGI [8]: 13.5 µM; CC50 [8]: 38.9 µM
COc1ccc(OC)c2c1NC(=O)/C2=C/c1cccc(/C=C2/C(=O)Nc3c(OC)ccc(OC)c32)n1	0.4	8.7	0.8	11.2	0.7	2.2	13.5	0.5	3.4	0.7	17.4	0.9	85.1	18.6	0.7	2.5	18.2	0.5	1.9	0.7	LC50 [1]: 64.6 µM; CC50 [2]: 27.5 µM; CC50 [4]: 25.1 µM; CC50 [5]: 60.3 µM; LC50 [7]: 22.4 µM; TGI [8]: 3.6 µM; CC50 [8]: 21.9 µM
COc1ccc2c(c1)/C(=C\c1ccc3ccc4ccc(/C=C5/C(=O)Nc6ccc(OC)cc65)nc4c3n1)C(=O)N2	3	60.3	5.5	58.9	3.2	11.5	74.1	3.7	36.3	3.9	75.9	3.2	75.9	28.2	3.3	19.5	97.7	2.8	16.2	3.8	–
